Measured values from patent US6319951A, “Use of 3-amino-4-hydroxybenzoic acid for the treatment of retroviral infections” (priority 1996, dated 2001).
≈ marks a conversion by molar mass, not a printed value. Where “and” joins values, the source holds several entries; their conditions need not be identical. Equal entries are not always repeated. Entries after “also recorded” stand apart in the source; their conditions may differ. Where two headings read alike, the source gives them in different places.

Legend:
hyaluronidase = settings: acrosomal proteolytic enzyme of sperm; cited from earlier work
human lymphocytes = test: adverse effect on human lymphocytes in HIV culture; assay type: cell-based; settings: at minimum concentration of 0.5 mg/l
safety study on rabbit = assay type: in vivo; settings: intraperitoneal, 9 days, up to 133.3 mg/kg
HIV [1] = test: dipping HIV into aqueous 3-amino-4-hydroxybenzoic acid; settings: aqueous solution, 30 seconds
Text: This duration is too short to be an inhibition of protein synthesis. It could only be an irreversible binding of the viral coat at gp120, gp160 or gp41 thereby making the virus fail to attach itself to the CD4 surface markers of target cells. […] It may also inactivate the lytic enzyme essential for HIV entry into the host cell as it does for hyaluronidase.

HIV [2] = test: antimicrobial activity, HIV
HIV [3] = assay type: in vivo
Procedure: Clinical observations on HIV/AIDS Patients Treated with 3-amino-4-hydroxybenzoic acid
Treatment was administered orally to each patient taking 200 mg of 3-amino-4-hydroxybenzoic acid tds for 14 days.

[4] = Therapeutic Index determination
Text: The Therapeutic Index of 3-amino-4-hydroxybenzoic acid has been determined. International pharmacological principles demand that for human safety the Therapeutic Index of any drug to be used for human treatment should be greater than a unit, i.e. 1. If the Index is greater than 1, patients can take the drug without medical supervision and without experiencing adverse effects. There are, however, cases where therapeutic indices are less than 1 where the benefits outweigh the risks. This holds in the administration of anti-cancer drugs which mandate the availability of competent medical supervision. The reason behind this is that the drugs are supposed to destroy cancerous human cells. The difference between normal human cells and cancerous human cells is, as expected, minimal. It is expected that the difference between HIV and normal human cells would be colossal.
Therapeutic Index for 3-amino-4-hydroxybenzoic acid is: [formula]
The index for 3-amino-4-hydroxybenzoic acid is 40,000 which is good mathematical proof to back the safety of 3-amino-4-hydroxybenzoic acid as a drug to treat HIV.

safety study on chicken = assay type: in vivo; settings: oral, 9 days, up to 400.6 mg/kg
Text: A chicken of 500 g was used and 3-amino-4-hydroxybenzoic acid in water was forced down the esophagus using a plastic syringe over 9 days.

HIV [5] = test: inactivation of HIV cultivated in human lymphocytes (minimum inhibitory concentration); assay type: cell-based
[6] = safety study on human volunteers; assay type: in vivo; settings: 7 volunteers, oral; person 1: 200 mg stat and 200 mg tds x 2/52; person 3: 800 mg stat
Text: Safety Study on Human Volunteers
Dose & Frequency of 3- Total 3-amino-4-
amino-4-hydroxybenzoic hydroxybenzoic acid
Person acid Intake mg/kg
Each person took 3-amino-4-hydroxybenzoic acid orally.

HIV [7] = test: trial based on clinical and haematological findings (Example 5); assay type: in vivo
Text: In addition, trial based on clinical and haematological findings have shown the following observations.

[8] = absorption and excretion inferred from oral treatment of gonorrhoea patient; assay type: in vivo, human; settings: 1.6 g
Procedure: (§1) When a patient, with a frankly discharging gonorrhoeae was given 1.6 g of 3-amino-4-hydroxybenzoic acid orally, the discharge ceased in 12 hours but recurred in the 24th hour after treatment.

gonorrhoeae = test: patient with gonorrhoea treated orally; assay type: in vivo, human; settings: 1.6 g orally
Procedure: as §1

HIV [9] = test: T-cell observations after HIV/AIDS treatment (Example 4); assay type: in vivo
Procedure: Symptomatic and asymptomatic seropositive individuals were treated with 3-amino-4-hydroxybenzoic acid (200 mg tds orally) for two weeks. CD4 :CD8 ratios were taken before and three months after treatment. […] Based on its inherent ability to inactivate HIV in vitro it is probable that 3-amino-4-hydroxybenzoic acid suppresses or inactivates the HIV in affected individuals.
The individuals were taken randomly as they became available (3 male and 4 female). Their T-cell counts were taken before treatment and three months after treatment. They were given 3-amino-4-hydroxybenzoic acid as 200 mg tds orally and followed on daily basis as they took 3-amino-4-hydroxybenzoic acid for two weeks. Thereafter they were followed weekly for the first month after finishing the course of medicine and then monthly.

water solubility = assay type: physicochemical
Trichomona vapinalis = test: antimicrobial activity, protozoan Trichomonas
[10] = adverse effects in HIV/AIDS patients; assay type: in vivo, human
Text: Our experience in using 3-amino-4-hydroxybenzoic acid to treat HIV/AIDS has shown only one non-uniform adverse effect. […] In the case of 3-amino-4-hydroxybenzoic acid, this occasional side effect can be averted by feeding before administration, giving a flavouring agent before administration or preparing the medicament in capsule form. The nausea is temporary. The medicament is preferably taken for approximately 28 days.

[11] = 200 mg tds oral, 14 days, patient three (1)
[12] = 200 mg tds orally, two weeks, before vs three months after treatment
[13] = per patient, 200 mg tds orally, two weeks, three months after treatment

Nc1cc(C(=O)O)ccc1O [3-amino-4-hydroxybenzoic acid]
inactivation of hyaluronidase (hyaluronidase): inactivates an achrosomal proteolytic enzyme hyaluronidase | adverse effect to the lymphocytes (human lymphocytes): without any adverse effect to the lymphocytes | adverse effects (safety study on rabbit): no adverse effects observed | infectivity of HIV after dipping (HIV [1]): renders the virus uninfective | antimicrobial activity (HIV [2]): established | body weight after treatment (HIV [3]; [11]): 48 kg | haemoglobin after treatment (HIV [3]; [11]): 16% | lymphocytes (relative) after treatment (HIV [3]; [11]): 49% | body weight before treatment (HIV [3]; 200 mg tds oral, 14 days, patient three (1), baseline): 44 kg | clinical, haematological and weight gain assessment (HIV [3]; about 20 patients): found to improve | average weight gain (HIV [3]; average patient, within the first month): 5 kg | signs and symptoms (HIV [3]; patient five (3), after 2 weeks): the signs and symptoms were over | standing and walking unaided (HIV [3]; patient four (9)): By the third day they could stand and walk unaided | time until diarrhoea ceased (HIV [3]; patient four (9)): 24 h | vomiting and diarrhoea (HIV [3]; patient four (9)): over by the third day | health at follow-up (HIV [3]; patient four (9), 22.1.95 and May 19th 1995): in perfect health on 22.1.95 | serum iron (HIV [3]; patient four (9), all along the time of treatment): normal | wounds healed, signs and symptoms over (HIV [3]; patient four (9), by end of second week): wounds had healed and all their signs and symptoms were over | haemoglobin rise (HIV [3]; patient four (9), by the sixth month): 1 g % | weight gain (HIV [3]; patient four (9), in six months): 1 kg | haemoglobin after treatment (HIV [3]; patient four (9), sixth month): 11.9% | oral ulcers, genital wounds and lymph node enlargement (HIV [3]; patient one (2)): over by the second week of treatment | time until able to go to the toilet and bathroom unaided (HIV [3]; patient one (2)): ≤ 5 days | body weight before treatment (HIV [3]; patient one (2), baseline): 41 kg | weight gain (HIV [3]; patient one (2), in 3 weeks): 2.5 kg | rashes and pigmentation (HIV [3]; patient six (6), in 2 weeks of treatment): The rashes subsided and the pigmentation returned to normal skin colour | time until signs and symptoms were over (HIV [3]; patient three (1)): six | haemoglobin before treatment (HIV [3]; patient three (1), baseline): 11.69% | lymphocytes (relative) before treatment (HIV [3]; patient three (1), baseline): 39% | body weight before treatment (HIV [3]; patient three (8), baseline): 44 kg | haemoglobin before treatment (HIV [3]; patient three (8), baseline): 12.1% | functional recovery (house work, shopping) (HIV [3]; patient two (7), in 5 days of treatment): able to do their house work, go for salary from their place of work and even go to the market for shopping | Therapeutic Index [4]: 40,000 | selectivity ratio [4]: 40000 | adverse effects (safety study on chicken): no adverse effects observed | MIC (HIV [5]; Human immunodeficiency virus 1, HIV cultivated in human lymphocytes, read-out: minimum inhibitory concentration / minimum concentration inactivating cultivated HIV): 0.5 µg/mL (≈ 3.27 µM) | inactivation of cultivated HIV (HIV [5]; in vitro, cultivated HIV): completely inactivate cultivated HIV | persons experiencing nausea [6]: Only persons 1 and 3 experienced nausea without vomiting | time until anorexia subsides (HIV [7]; human, in vivo): ≤ 5 days | time until bed ridden patients can stand and do light work (HIV [7]; human, in vivo): ≤ 2 weeks | time until diarrhoea stops (HIV [7]; human, in vivo): 1-3 | time until fever and weakness subside (HIV [7]; human, in vivo): ≤ 1 week | time until haemoglobin normalizes (HIV [7]; human, in vivo): ≤ 1 month | time until poor vision normalizes (HIV [7]; human, in vivo): ≤ 1 week | time until rashes and hyper pigmentation of scars subside (HIV [7]; human, in vivo): ≤ 5 days | time until sleep normalizes in intensity and rhythm (HIV [7]; human, in vivo): ≤ 2 days | time until vomiting ceases (HIV [7]; human, in vivo): ≤ 2 days | time until oral and anogenital ulcers heal (HIV [7]; human, in vivo, po): ≤ 1 week | average weight gain (HIV [7]; within the first month of treatment): 5 kg | absorption from the gut / excretion [8]: sufficiently absorbed from the gut; also recorded: well absorbed and excreted | bacteriostatic effect (gonorrhoeae): bacteriostatic | time to cessation of gonorrhoeal discharge (gonorrhoeae): 12 h | immunological improvement (HIV [9]; 200 mg tds orally, two weeks): there is immunological improvement | mean increase in CD4 (HIV [9]; 200 mg tds orally, two weeks, 7 patients): 208 | CD4:CD8 ratio change (HIV [9]; [12]): rose | CD8 change (HIV [9]; [12]): decreased to varying levels in all of the individuals | Increase in CD4 after treatment (HIV [9]; 200 mg tds orally, two weeks, three months after treatment, per patient): 531 CD4/mm^3 and 72 CD4/mm^3 and 160 CD4/mm^3 and 40 CD4/mm^3 and 184 CD4/mm^3 and 102 CD4/mm^3 and 465 CD4/mm^3 | CD4/CD8 Ratio Before Treatment (HIV [9]; per patient, baseline): 0.845 and 0.00 and 0.7 and 0.3 and 0.29 and 0.9 | CD4 Count Before Treatment (HIV [9]; per patient, baseline): 561 CD4/mm3 and 50 CD4/mm3 and 650 CD4/mm3 and 460 CD4/mm3 and 300 CD4/mm3 and 1122 CD4/mm3 and 1014 CD4/mm3 | CD4/CD8 Ratio After Treatment (HIV [9]; [13]): 1.632 and 0.06 and 2.2 and 0.2 and 0.564 and 0.78 and 1.11 | CD4 Count After Treatment (HIV [9]; [13]): 1092 CD4/mm3 and 112 CD4/mm3 and 810 CD4/mm3 and 500 CD4/mm3 and 484 CD4/mm3 and 1326 CD4/mm3 and 1479 CD4/mm3 | solubility in water (water solubility): not readily soluble in water | antimicrobial activity (Trichomona vapinalis): established | adverse effect ([10]; HIV/AIDS patients): nausea and vomiting in the very weak | side effects noted ([10]; chicken, rabbit, sheep and human volunteers): Only tolerable nausea and occasional vomiting
